In assay [1] the test system is E. coli. The assay can be described thus: E. coli adherence to gastro-intestinal mucosa. The following applies: inventors' determination.
Assay [2] concerns E. coli. The conditions noted are these: cited from earlier work; for tissue injury and inflammatory cell infiltration: rabbit ileal loop model, U.S. Pat. No. 6,132,710.
Assay [3] deals with E. coli. The following applies: cited from earlier work; for adherence and translocation of Gram (−) organisms such as E. coli: Caco-2 cell culture model, U.S. Pat. No. 6,132,710.
In assay [4] the test system is E. coli. The assay can be described thus: Caco-2 cell transwell system, E. coli translocation (transcytosis). The following applies: inventors' determination. In kind it is cell-based. The protocol: Caco-2 cells derived from human adenocarcinoma cells which show all the morphological and functional characteristics of mature small intestinal epithelial cells after differentiation were employed in a number of experimental systems. Panigrahi et al., Development of an in vitro model for study of non-01 Vibrio cholerae virulence using Caco-2 cells, Infect. Immun., 58:3415-3424 (1990). Caco-2 cells were grown in DMEM supplemented with 1% nonessential amino acids, 1% sodium pyruvate, 10% fetal calf serum, 100 U penicillin and 100 μg of streptomycin/mL in a 5% CO2 atmosphere at 37° C. For transcytosis studies, 0.2×10^6 cells in 0.3 mL medium were seeded on the apical side of 0.6 cm^2 polycarbonate transwell filters/clusters (Costar, Cambridge, Mass.). […]
A Caco-2 cell transwell system was used in accordance with Panigrahi et al. (1990) and Panigrahi et al. (1994) to grow cells on a membrane allowing the measurement of bacteria that translocate. Briefly, Caco-2 cells were grown on polycarbonate filters in transwell cluster and TEER (trans-epithelial electrical resistance) was measured before and after treatment (1) with E. coli alone, (2) in a system deprived of glutamine, (3) in a system deprived of glutamine and later replenished with glutamine, and (4) in a system deprived of glutamine and treated with a Lactobacillus strain ATCC 202195 and glutamine composition. […]

Results on four compounds are retold here after patent publication US20040096427A1, “Oral gram(+) bacteria and glutamine composition for prevention and/or treatment of gastro-intestinal dysfunctions including inflammation in the gastro-intestinal tract, neonatal necrotizing enterocolitis (nec) and bacterial sepsis” (priority 2003, published 2004).

For Lactobacillus, the “effect on E. coli adherence to gastro-intestinal mucosa” value in the assay with E. coli [1] was “prevents initial steps”.

On to Lactobacillus plantarum, for which the “tissue injury and inflammatory cell infiltration” value in the assay on E. coli [2] was “reduced”. In the assay on E. coli [3], the “adherence and translocation of Gram (−) organisms such as E. coli” value is recorded as “capable of blocking”.

Regarding Lactobacillus acidophilus, in the assay with E. coli [2], the “tissue injury and inflammatory cell infiltration” value is listed as “reduced”. In the assay with E. coli [3], the “adherence and translocation of Gram (−) organisms such as E. coli” value is recorded as “capable of blocking”.

Turning to `NC(=O)CC[C@H](N)C(=O)O` [glutamine], the “protection against Gram (−) bacteria-induced necrotizing enterocolitis” value in the assay with E. coli [2] (instillation of rabbit ileal loops with glutamine, U.S. Pat. No. 5,981,590) is listed as “protects”. For the same compound, the bacterial translocation entry with E. coli [3] (glutamine supplied from the luminal (apical) side, U.S. Pat. No. 5,981,590) is “reduce bacterial translocation”. The “effect on translocation of E. coli across mucosal layers” value with E. coli [4] was “prevents translocation”. Further, the “effect on E. coli adherence to gastro-intestinal mucosa” value in the assay on E. coli [1] was “does not have an effect”.
